# How the values were obtained:
# [1] = test system: aspergillus fumigatus (ATCC 13073 [strain: NIH 5233]); test: In vivo anti-fungal activity, prophylactic and therapeutic treatment of infected immunocompromised neutropenic mice; parameters: species or system A/J mice; settings: for % Inhibition versus Infected Control, GM in BALF / % Inhibition versus Infected Control, GM in serum / % Inhibition versus Infected Control, Lung Fungal Load: therapeutic treatment (days 1, 2 and 3); for % Inhibition versus Infected Controls, GM in BALF / % Inhibition versus Infected Controls, GM in serum / % Inhibition versus Infected Controls, Lung Fungal Load: prophylactic treatment (days 0, 1, 2 and 3)
# [2] = Cell viability: resazurin assay; assay type: cell-based, human; settings: human, BEAS2B cells; n = 3-5
# Method in brief: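 BEAS2B cells in RPMI-LHC8, exposed to compound for 1 day at 37 °C (0.5% DMSO final), then resazurin added for a further 4 h. Fluorescence (ex 545/em 590 nm) gives % viability loss vs 0.5% DMSO vehicle; CC50 from concentration-response curve.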
# [3] = test system: Aspergillus fumigatus NCPF7100; test: Broth microdilution assay (modified EUCAST); assay type: cell-based; settings: Aspergillus fumigatus, NCPF7100, read-out: MIC75 against Aspergillus fumigatus isolate NCPF7100
# [4] = test system: aspergillus fumigatus infection of BEAS2B cells; test: Aspergillus fumigatus infection of bronchial epithelial cells (GM in supernatant); assay type: cell-based; settings: bronchial epithelial cells infected with Aspergillus fumigatus; read-out: MIC50 Infection of BEAS2B cells
# Method in brief: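 BEAS2B cells in 10% FBS RPMI-1640 pre-treated with compound (0.5% DMSO final) for 1 hr at 35 °C, then infected with A. fumigatus conidia (0.5×10^5/ml suspension) for 24 hr at 35 °C. Galactomannan in 1:20-diluted supernatant measured by Platelia GM-EIA; IC50 from percent-inhibition concentration-response curves.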
# [5] = test system: Aspergillus fumigatus L98H (TR34/L98H); test: Broth microdilution assay (modified EUCAST); assay type: cell-based; settings: Aspergillus fumigatus, read-out: MIC75 against Aspergillus fumigatus isolate L98H
# Method in brief: (§1)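 Spores from 3-day Sabouraud cultures (working suspension 2 × 10^5 spores/mL) were added to an equal volume of RPMI-1640 (2 mM L-glutamine, 0.5% BSA, 2% glucose, 0.165 M MOPS, pH 7) containing compound, in quadruplicate. After 48 hr at 35 °C, OD530 gave percent inhibition. MIC50, MIC75 and MIC90 came from concentration-response curves.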
# [6] = test system: Aspergillus fumigatus NCPF7099; test: Broth microdilution assay (modified EUCAST); assay type: cell-based; settings: Aspergillus fumigatus, NCPF7099, n = 3, read-out: MIC75 against Aspergillus fumigatus isolate NCPF7099
# Method in brief: as §1
# [7] = test system: Aspergillus fumigatus NCPF2010; test: Broth microdilution assay (modified EUCAST); assay type: cell-based; settings: Aspergillus fumigatus, NCPF2010, read-out: MIC75 against Aspergillus fumigatus isolate NCPF2010
# Method in brief: as §1
Compound,"% Inhibition versus Infected Control, GM in BALF ([1]; 0.08 mg/mL)","% Inhibition versus Infected Control, GM in serum ([1]; 0.08 mg/mL)","% Inhibition versus Infected Control, Lung Fungal Load ([1]; 0.08 mg/mL)","% Inhibition versus Infected Control, GM in BALF ([1]; 0.4 mg/mL)","% Inhibition versus Infected Control, GM in serum ([1]; 0.4 mg/mL)","% Inhibition versus Infected Control, Lung Fungal Load ([1]; 0.4 mg/mL)",CC50 at 1 day [2],MIC [3],MIC50 [4],MIC [5],MIC [6],MIC [7],"% Inhibition versus Infected Controls, GM in BALF ([1]; 0.4 mg/mL)","% Inhibition versus Infected Controls, GM in serum ([1]; 0.4 mg/mL)","% Inhibition versus Infected Controls, Lung Fungal Load ([1]; 0.4 mg/mL)","% Inhibition versus Infected Controls, GM in BALF ([1]; 2 mg/mL)","% Inhibition versus Infected Controls, GM in serum ([1]; 2 mg/mL)","% Inhibition versus Infected Controls, Lung Fungal Load ([1]; 2 mg/mL)"
"Cc1nc(N2CCN(c3ccc(C(=O)Nc4ccc(F)cc4)cc3)CC2)ccc1OC[C@@H]1CO[C@@](Cn2cncn2)(c2ccc(F)cc2F)C1 [Example 3, 4-(4-(5-(((3R,5R)-5-((1H-1,2,4-Triazol-1-yl)Methyl)-5-(2,4-Difluorophenyl)Tetra Hydrofuran-3-yl)Methoxy)-6-Methylpyridin-2-yl)Piperazin-1-yl)-N-(4-Fluorophenyl) Benzamide]",95%,92%,98%,86%,89%,96%,> 14.6 µM,0.0451 µM,0.0517 µM,0.033 µM,0.0276 µM,0.018 µM,–,–,–,–,–,–
"Cc1cc(N2CCN(c3ccc(C(=O)Nc4ccc(S(N)(=O)=O)cc4)cc3)CC2)ccc1OC[C@@H]1CO[C@@](Cn2cncn2)(c2ccc(F)cc2F)C1 [Example 19, 4-(4-(4-(((3R, 5R)-5-((1H-1,2,4-triazol-1-yl)methyl)-5-(2,4-difluorophenyl)tetrahydrofuran-3-yl)methoxy)-3-methylphenyl)piperazin-1-yl)-N-(4-sulfamoylphenyl)benzamide]",–,–,–,–,–,–,> 13.4 µM,0.0227 µM,0.0172 µM,0.0577 µM,0.0089 µM,0.0166 µM,16%,30%,62%,41%,47%,74%
"Cc1cc(N2CCN(c3ccc(C(=O)Nc4ccc(C#N)cc4F)cc3)CC2)ccc1OC[C@@H]1CO[C@@](Cn2cncn2)(c2ccc(F)cc2F)C1 [Example 23, 4-(4-(4-(((3R, 5R)-5-((1H-1,2,4-triazol-1-yl)methyl)-5-(2,4-difluorophenyl)tetrahydrofuran-3-yl)methoxy)-3-methylphenyl)piperazin-1-yl)-N-(4-cyano-2-fluorophenyl)benzamide]",–,–,–,–,–,–,> 14.1 µM,0.0443 µM,0.00337 µM,0.0602 µM,0.0284 µM,0.0126 µM,71%,79%,56%,–,–,–
"O=C(Nc1ccc(F)cc1)c1ccc(N2CCN(c3ccc(OC[C@@H]4CO[C@@](Cn5cncn5)(c5ccc(F)cc5F)C4)c(CO)c3)CC2)cc1 [Example 16, 4-(4-(4-(((3R, 5R)-5-((1H-1,2,4-triazol-1-yl)methyl)-5-(2,4-difluorophenyl)tetrahydrofuran-3-yl)methoxy)-3-hydroxymethylphenyl)piperazin-1-yl)-N-(4-fluorophenyl)benzamide]",76%,62%,91%,88%,85%,96%,> 14.3 µM,0.00658 µM,0.00082 µM,0.0335 µM,0.00926 µM,0.00512 µM,–,–,–,–,–,–
"N#Cc1cc(N2CCN(c3ccc(C(=O)Nc4ccc(F)cc4)cc3)CC2)ccc1OC[C@@H]1CO[C@@](Cn2cncn2)(c2ccc(F)cc2F)C1 [Example 4, 4-(4-(4-(((3R,5R)-5-((1H-1,2,4-Triazol-1-yl)Methyl)-5-(2,4-Difluorophenyl) Tetrahydrofuran-3-yl)Methoxy)-3-Cyanophenyl)Piperazin-1-yl)-N-(4-Fluorophenyl) Benzamide]",–,–,–,–,–,–,> 14.4 µM,0.0383 µM,0.00777 µM,0.0737 µM,0.0413 µM,0.00868 µM,84%,90%,85%,–,–,–
"Cc1cc(N2CCN(c3ccc(C(=O)Nc4ccc(C#N)cc4)cc3)CC2)ccc1OC[C@@H]1CO[C@@](Cn2cncn2)(c2ccc(F)cc2F)C1 [Example 9, 4-(4-(4-(((3R,5R)-5-((1H-1,2,4-triazol-1-yl)methyl)-5-(2,4-difluorophenyl)tetrahydrofuran-3-yl)methoxy)-3-methylphenyl)piperazin-1-yl)-N-(4-cyanophenyl)benzamide]",–,–,–,–,–,–,> 14.5 µM,0.0232 µM,0.00521 µM,0.114 µM,0.00739 µM,0.0291 µM,–,–,–,–,–,–
"Cc1cc(N2CCN(c3ccc(C(=O)Nc4ccc(C#N)cc4)cc3)CC2)cc(C)c1OC[C@@H]1CO[C@@](Cn2cncn2)(c2ccc(F)cc2F)C1 [Example 11, 4-(4-(4-(((3R, 5R)-5-((1H-1,2,4-triazol-1-yl)methyl)-5-(2,4-difluorophenyl)tetrahydrofuran-3-yl)methoxy)-3,5-dimethylphenyl)piperazin-1-yl)-N-(4-cyanophenyl)benzamide]",–,–,–,–,–,–,> 14.2 µM,0.0529 µM,0.284 µM,0.179 µM,0.049 µM,0.0236 µM,–,–,–,–,–,–
"Cc1cc(N2CCN(c3ccc(C(=O)Nc4cccc(F)c4)cc3)CC2)ccc1OC[C@@H]1CO[C@@](Cn2cncn2)(c2ccc(F)cc2F)C1 [Example 14, 4-(4-(4-(((3R, 5R)-5-((1H-1,2,4-triazol-1-yl)methyl)-5-(2,4-difluorophenyl)tetrahydrofuran-3-yl)methoxy)3-methylphenyl)piperazin-1-yl)-N-(3-fluorophenyl)benzamide]",–,–,–,–,–,–,> 14.6 µM,0.041 µM,0.00836 µM,0.0735 µM,0.0332 µM,0.0431 µM,–,–,–,–,–,–
"Cc1cc(N2CCN(c3ccc(C(=O)Nc4cccc(C#N)c4)cc3)CC2)ccc1OC[C@@H]1CO[C@@](Cn2cncn2)(c2ccc(F)cc2F)C1 [Example 8, 4-(4-(4-(((3R,5R)-5-((1H-1,2,4-triazol-1-yl)methyl)-5-(2,4-difluorophenyl)tetrahydrofuran-3-yl)methoxy)-3-methylphenyl)piperazin-1-yl)-N-(3-cyanophenyl)benzamide]",–,–,–,–,–,–,0.548 µM,> 1.45 µM,0.0142 µM,> 1.45 µM,> 1.45 µM,0.0127 µM,–,–,–,–,–,–
